The source of these data is patent US20220186190A1, “MODELING ONCOLOGY ON DEMAND” (The Board of Trustees of the University of Illinois, priority 2019, published 2022).

Series [1] relates to HepG2. Briefly: MTT chemotherapeutic screening, human HCC cell line HepG2. It is filed as cell-based. As to conditions: 72 hours exposure. The protocol: (§1) Cells (1×1O^4 cells/well) were cultured in 200 ? DMEM+10% FBS overnight in 96 well plates. The following day, culture media was replaced with fresh media supplemented with one of 10 varying concentrations of each chemotherapeutic compound. Sorafenib, doxorubicin, mitomycin C, and 5-Fluorouracil (5-FU) were prepared from a stock solution in a 10-point serial dilution curve, in DMSO, and added at 1:100 to culture media (final concentration of DMSO was 1% for all conditions). As platinum complexes are inactivated by DMSO, cisplatin stock solution was 3.33 mM in water and the stock was used to prepare all dilutions. Sorafenib and mitomycin C were tested from 0.5-100 μM, doxorubicin from 0.1-20 μM, cisplatin from 1-200 μM, and 5-FU from 1-500 μM in order to assay concentrations that are relevant for clinically used dosages and that allow for calculation of the half maximal inhibitory concentration (IC50) for each compound. 96 well plates with each cell line and chemotherapeutic concentration in triplicate were prepared for time points 0, 24, 48, and 72 hours to observe a dose response overtime. For the 3-(4,5-dimethylthiazol-2-yl)-2,5-diphenyltetrazolium bromide (MTT) assay, 100 ? of fresh media was replaced at each time point, 10 ? of 5 mg/ml MTT added to each well and incubated for 4 hours at 37° C. 100 ? for an SDS/HCl solution (1 g SDS/10 ml 0.1 HCl) was then added to solubilize the resulting formazan dye and the plates incubated an additional 4 h at 37° C. Absorbance at 570 nm was read using a BioTek 800 TS Absorbance Reader (BioTek). Results are expressed in percentage, relative to the absorbance values for each cell line at time 0.
(§2) OCM and human HCC cell lines display similar sensitivities to four FDA approved cytostatic (sorafenib) and cytotoxic (doxorubicin, cisplatin, mitomycin C) chemotherapeutic agents used to treat HCC clinically, either systemically or via transarterial chemoembolization (TACE), and one shown to be ineffective (5-FU) in clinical settings.

Series [2] relates to OCM HCC cell lines. Briefly: MTT chemotherapeutic screening, OCM HCC cell line. The class given is cell-based, pig. The note with it: 72 hours exposure. The method, then:
as §1, §2

Series [3] concerns Hepal-6. As to the kind of experiment: MTT chemotherapeutic screening, murine HCC cell line Hepal-6. It is filed as cell-based. The note with it: for IC50: Hepal-6, MTT, 72 hours exposure. The protocol: as §1, §2
The nature of series [4]: In vivo PK and tumor specific uptake of systemically administered DON prodrugs in Oncopigs bearing SQ soft-tissue sarcomas. Details: species or system pig. As to conditions: for AUC / Cmax: systemically administered prodrug. An excerpt: (§3) OCM soft-tissue sarcoma cell lines were used to assess tumor cell specific uptake and conversion of 6-Diazo-5 -oxo-1-norleucine (DON) prodrugs. […] In addition, in vivo investigation of tumor specific uptake and temporal PK of systemically administered prodrugs in Oncopigs bearing SQ soft-tissue sarcomas validated the capability to employ the tumor-bearing OCM for chemotherapy drug pharmacologic studies (FIGS. 13A and 13B and Table 8).

Series [5] deals with Oncopig soft tissue sarcoma tumor cells. As to the kind of experiment: In vitro partitioning and conversion of DON prodrugs to DON in Oncopig soft tissue sarcoma tumor cells. The class given is in vitro ADME, pig. The note with it: FIGS. 12A-12D.
From the text: FIGS. 12A-12D are graphs showing in vitro partitioning and conversion of 6-diazo-5-oxo-1-norleucine (DON) prodrugs to DON in Oncopig soft tissue sarcoma tumor cells vs. plasma. […] However, when delivered as a prodrug (FIGS. 12B-12D), the level of active compound (DON, y-axis) is much higher in the cells than the cell supernatant.
as §3

For orientation: IC50 means the concentration that gives 50% inhibition. Read a low IC50 as greater potency in that assay.

With `O=c1[nH]cc(F)c(=O)[nH]1` [5-FU, 5-Fluorouracil], the values for the IC50 in series [1] (Homo sapiens), in series [2] (Sus scrofa) and in series [3] (Mus musculus) were 18300 nM, 14500 nM and 1820 nM, respectively. The “higher susceptibility of murine HCC lines versus OCM and human lines” value in series [3] (Hepal-6 compared with OCM and human HCC lines) is given as 10 fold.

`N.N.[Cl][Pt][Cl]` [Cisplatin, cisplatin]: the IC50 in series [1] worked out at 5600 nM; in series [2], 5380 nM; in series [3], 2160 nM.

As for `[N-]=[N+]=CC(=O)CC[C@H](N)C(=O)O` [DON, 6-diazo-5-oxo-1-norleucine], the “Tumor:Plasma AUC ratio” value in series [4] worked out at 1.5. For the same compound, the “selective in vivo partitioning (tumor vs. plasma)” value in series [4] (FIGS. 13A and 13B) is on record as “selective in vivo partitioning of DON to tumor cells”. Besides, in series [4] (Plasma), the AUC is 2852 h*pmol/ml or g and the Cmax is reported as 530 pmol/ml or g. Besides, in series [4] (Tumor), the AUC is reported as 4238 h*pmol/ml or g and the Cmax was 1019 pmol/ml or g. Further, in series [5], the “level of DON in cells vs. cell supernatant” value was “high levels are observed in the cell supernatant, with small amounts entering the cells”.

`COc1cccc2c1C(=O)c1c(O)c3c(c(O)c1C2=O)C[C@@](O)(C(=O)CO)C[C@@H]3O[C@H]1C[C@H](N)[C@H](O)[C@H](C)O1` [Doxorubicin, doxorubicin]: the IC50 in series [1] (Homo sapiens) amounted to 230 nM; in series [2] (Sus scrofa) it was 80 nM; in series [3] (Mus musculus) it was 530 nM.

Regarding `CO[C@@]12[C@H](COC(N)=O)C3=C(C(=O)C(C)=C(N)C3=O)N1C[C@@H]1N[C@@H]12` [Mitomycin C, mitomycin C], the IC50 in series [1] is 570 nM; in series [2] it was 480 nM; in series [3], 610 nM.

Consider `CNC(=O)c1cc(Oc2ccc(NC(=O)Nc3ccc(Cl)c(C(F)(F)F)c3)cc2)ccn1` [Sorafenib], for which the IC50 was 8860 nM in series [1] (Homo sapiens), 10400 nM in series [2] (Sus scrofa) and 4980 nM in series [3] (Mus musculus).
